According to patent US12521440B2, “Degradation of bruton's tyrosine kinase (BTK) by conjugation of BTK inhibitors with E3 ligase ligand and methods of use” (BeOne Medicines I GmbH, priority 2021, dated 2026):

Experiments:
[1] = molecular target: T1, BTK (Homo sapiens, UniProt Q06187); experiment: BTK degradation in TMD-8 cells (HTRF assay); assay type: cell-based; details: 6 h treatment, HTRF BTK degradation IC50 (DC50)
T1 construct: endogenous in cells; host or cells: TMD-8 cells
Method: TMD-8 cells were treated with compounds diluted in 0.2% DMSO, dilution was done according to the following protocol: (1) making 500×stock solution in DMSO from 1 mM by 6-fold dilution, total 8 doses were included; (2) making 2×solution in cell culture medium by transferring 0.5 μl 500×stock solution into 125 μl medium; (3) adding 15 μl of 2×solution to cells for incubation of 6 h.
After 6 h treatment, 10 μl 4×lysis buffer was added to each well; the plate was sealed and incubated for 30 min at room temperature on a plate shaker; Once the cells was lysed, 16 μL of cell lysate were transferred to a PE 384-well HTRF detection plate; 4 μL of pre-mixed HTRF antibodies were added to each well; the plate was covered with a plate sealer, and then spinned at 1000 rpm for 1 min, then incubated overnight at room temperature; the results were read on BMG PheraStar with HTRF protocol (337 nm-665 nm-620 nm).
(§1) The IC50 (DC50) value of a compound can be obtained by fitting the following equation Y=Bottom+(TOP−Bottom)/(1+((IC50/X)^hillslope)) wherein, X and Y are known values, and IC50, Hillslope, Top and Bottom are the parameters obtained by fitting with software. Y is the inhibition percentage (calculated from the equation), X is the concentration of the compound; IC50 is the concentration of the compound when the 50% inhibition is reached. The smaller the IC50 value is, the stronger the inhibitory ability of the compound is. Vice versa, the higher the IC50 value is, the weaker the ability the inhibitory ability of the compound is; Hillslope represents the slope of the fitted curve, generally around 1*; Bottom represents the minimum value of the curve obtained by data fitting, which is generally 0%±20%; Top represents the maximum value of the curve obtained by data fitting, which is generally 100%±20%. The experimental data were fitted by calculating and analyzing with Dotmatics data analysis software. HEK-293 Cell Treatment

[2] = test system: HEK-293 cells; experiment: HEK-293 cytotoxicity detection (CellTiter-Glo); assay type: cell-based; details: Homo sapiens, 72 h incubation, read-out: HEK293
Description: as §1
HEK-293 cells were treated with compounds diluted in 0.2% DMSO, dilution was done according to the following protocol: (1) making 500×stock solution in DMSO from 5 mM by 4-fold dilution, total 8 doses were included; (2) making 2×solution in cell culture medium by transferring 0.5 ul 500×stock solution into 125 ul medium; (3) adding 50 ul of 2×solution to cells for incubation of 72 h.
25 μl of the CellTiter-Glo® Reagent [(Promega)—Cat No. G7572] was added to each well in the 96-well plate. The contents were mixed for 2 minutes on an orbital shaker to induce cell lysis. The plate was then allowed to incubate at room temperature for 10 minutes to stabilize luminescent signal. Luminescence was recorded on BMG PheraStar with luminescence protocol.
as §1, with “IC50” for “IC50 (DC50)”, “Wherein,” for “wherein,”, “software.” for “software. HEK-293 Cell Treatment”

T1 sequence (Q06187 whole entry): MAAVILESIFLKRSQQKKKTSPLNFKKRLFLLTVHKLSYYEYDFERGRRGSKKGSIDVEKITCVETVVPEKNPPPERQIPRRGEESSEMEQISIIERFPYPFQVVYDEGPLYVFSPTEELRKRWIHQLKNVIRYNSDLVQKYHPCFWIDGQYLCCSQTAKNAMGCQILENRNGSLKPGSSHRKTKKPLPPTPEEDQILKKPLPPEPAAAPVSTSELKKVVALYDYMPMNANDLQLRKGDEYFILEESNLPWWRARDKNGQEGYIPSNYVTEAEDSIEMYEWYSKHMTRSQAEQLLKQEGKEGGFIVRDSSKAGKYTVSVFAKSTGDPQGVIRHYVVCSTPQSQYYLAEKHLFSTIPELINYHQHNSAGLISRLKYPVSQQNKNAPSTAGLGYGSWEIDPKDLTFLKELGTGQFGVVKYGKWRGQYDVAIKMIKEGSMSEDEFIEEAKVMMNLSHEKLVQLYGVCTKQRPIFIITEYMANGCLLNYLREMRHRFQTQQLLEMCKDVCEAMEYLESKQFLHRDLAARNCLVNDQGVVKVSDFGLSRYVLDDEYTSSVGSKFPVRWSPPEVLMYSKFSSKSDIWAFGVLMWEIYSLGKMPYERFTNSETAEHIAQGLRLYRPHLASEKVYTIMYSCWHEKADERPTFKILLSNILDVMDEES

SMILES | DC50 [1] | IC50 [2]
Cc1cc(-c2cc(Nc3ccc(N4CC5(CN(C(=O)C6CCN(c7ccc(N8CCC(=O)NC8=O)cc7)C6)C5)C4)cn3)ncn2)ccc1[C@@H](C)NC(=O)c1nc(C(C)(C)C)no1 (stereo partly drawn) [Example 37, 3-(tert-butyl)-N-((1R)-1-(4-(6-((5-(6-(1-(4-(2,4-dioxotetrahydropyrimidin-1(2H)-yl)phenyl)pyrrolidine-3-carbonyl)-2,6-diazaspiro [3.3]heptan-2-yl)pyridin-2-yl)amino)pyrimidin-4-yl)-2-methylphenyl)ethyl)-1,2,4-oxadiazole-5-carboxamide] | 0.835 nM | > 10000 nM
Cc1cc(-c2cc(Nc3ccc(N4CCN(CCC5CCN(c6ccc(C7CCC(=O)NC7=O)c(F)c6)CC5)CC4)cc3)ncn2)c(F)cc1[C@@H](C)NC(=O)c1nc(C(C)(C)C)no1 (stereo partly drawn) [Example 4, 3-(tert-butyl)-N-((1R)-1-(4-(6-((4-(4-(2-(1-(4-(2,6-dioxopiperidin-3-yl)-3-fluorophenyl)piperidin-4-yl)ethyl)piperazin-1-yl)phenyl)amino)pyrimidin-4-yl)-5-fluoro-2-methylphenyl)ethyl)-1,2,4-oxadiazole-5-carboxamide] | 16.9 nM | > 10000 nM
Cc1cc(-c2cc(Nc3ccc(N4CCN(CC5CCN(c6ccc(N7CCC(=O)NC7=O)cc6)CC5)CC4)cn3)ncn2)ccc1[C@@H](C)NC(=O)c1nc(C2(C)CC2)no1 [Example 11, (R)—N-(1-(4-(6-((5-(4-((1-(4-(2,4-dioxotetrahydropyrimidin-1(2H)-yl)phenyl)piperidin-4-yl)methyl)piperazin-1-yl)pyridin-2-yl)amino)pyrimidin-4-yl)-2-methylphenyl)ethyl)-3-(1-methylcyclopropyl)-1,2,4-oxadiazole-5-carboxamide] | 1.21 nM | > 10000 nM
Cc1cc(-c2cc(Nc3ccc(N4CCN(C(=O)Cc5cccc(N6CCC(=O)NC6=O)c5)CC4)cn3)ncn2)ccc1[C@@H](C)NC(=O)c1nc(C(C)(C)C)no1 [Example 56, (R)-3-(tert-butyl)-N-(1-(4-(6-((5-(4-(2-(3-(2,4-dioxotetrahydropyrimidin-1(2H)-yl)phenyl)acetyl)piperazin-1-yl)pyridin-2-yl)amino)pyrimidin-4-yl)-2-methylphenyl)ethyl)-1,2,4-oxadiazole-5-carboxamide] | 9.9 nM | > 10000 nM
Cc1cc(-c2cc(Nc3ccc(N4CCN(C(=O)C5CCN(c6ccc(N7CCC(=O)NC7=O)cc6)C5)CC4)cn3)ncn2)ccc1[C@@H](C)NC(=O)c1nc(C(C)(C)C)no1 (stereo partly drawn) [Example 29, 3-(tert-butyl)-N-((1R)-1-(4-(6-((5-(4-(1-(4-(2,4-dioxotetrahydropyrimidin-1(2H)-yl)phenyl)pyrrolidine-3-carbonyl)piperazin-1-yl)pyridin-2-yl)amino)pyrimidin-4-yl)-2-methylphenyl)ethyl)-1,2,4-oxadiazole-5-carboxamide] | 0.836 nM | > 10000 nM
Cc1cc(-c2cc(Nc3ccc(N4CCN(CCc5cc(F)c(C6CCC(=O)NC6=O)c(F)c5)CC4)cn3)ncn2)ccc1[C@@H](C)NC(=O)c1nc(C(C)(C)C)no1 (stereo partly drawn) [Example 45, 3-(tert-butyl)-N-((1R)-1-(4-(6-((5-(4-(4-(2,6-dioxopiperidin-3-yl)-3,5-difluorophenethyl)piperazin-1-yl)pyridin-2-yl)amino)pyrimidin-4-yl)-2-methylphenyl)ethyl)-1,2,4-oxadiazole-5-carboxamide] | 1.75 nM | > 10000 nM
Cc1cc(-c2ccnc(Nc3ccc(N4CCN(CC5CCN(c6ccc(N7CCC(=O)NC7=O)cc6)CC5)CC4)cc3)n2)ccc1[C@@H](C)NC(=O)c1nc(C(C)(C)C)no1 [Example 69, (R)-3-(tert-butyl)-N-(1-(4-(2-((4-(4-((1-(4-(2,4-dioxotetrahydropyrimidin-1(2H)-yl)phenyl)piperidin-4-yl)methyl)piperazin-1-yl)phenyl)amino)pyrimidin-4-yl)-2-methylphenyl)ethyl)-1,2,4-oxadiazole-5-carboxamide] | 2.42 nM | > 10000 nM
Cc1cc(-c2cc(Nc3ccc(N4CCN(CC5CCN(c6ccc(N7CCC(=O)NC7=O)c(F)c6)CC5)CC4)cc3)ncn2)c(F)cc1[C@@H](C)NC(=O)c1nc(C(C)(C)C)no1 [Example 2, (R)-3-(tert-butyl)-N-(1-(4-(6-((4-(4-((1-(4-(2,4-dioxotetrahydropyrimidin-1(2H)-yl)-3-fluorophenyl)piperidin-4-yl)methyl)piperazin-1-yl)phenyl)amino)pyrimidin-4-yl)-5-fluoro-2-methylphenyl)ethyl)-1,2,4-oxadiazole-5-carboxamide] | 236 nM | > 10000 nM
Cc1cc(-c2cc(Nc3ccc(N4CCN(CC5CCN(c6ccc(N7CCC(=O)NC7=O)cc6)CC5)CC4)nn3)ncn2)ccc1[C@@H](C)NC(=O)c1nc(C(C)(C)C)no1 [Example 15] | 0.638 nM | > 10000 nM
Cc1cc(-c2cc(Nc3ccc(N4CCC5(CCN(CC6CCN(c7ccc(N8CCC(=O)NC8=O)cc7)CC6)CC5)CC4)cn3)ncn2)ccc1[C@@H](C)NC(=O)c1nc(C(C)(C)C)no1 [Example 34, (R)-3-(tert-butyl)-N-(1-(4-(6-((5-(9-((1-(4-(2,4-dioxotetrahydropyrimidin-1(2H)-yl)phenyl)piperidin-4-yl)methyl)-3,9-diazaspiro [5.5]undecan-3-yl)pyridin-2-yl)amino)pyrimidin-4-yl)-2-methylphenyl)ethyl)-1,2,4-oxadiazole-5-carboxamide] | 1.88 nM | 891 nM
Cc1cc(-c2cc(Nc3ccc(N4CCN(CC5CCN(c6ccc(N7CCC(=O)NC7=O)c(F)c6)CC5)CC4)cn3)ncn2)ccc1[C@@H](C)NC(=O)c1nc(C(C)(C)C)no1 [Example 17, (R)-3-(tert-butyl)-N-(1-(4-(6-((5-(4-((1-(4-(2,4-dioxotetrahydropyrimidin-1(2H)-yl)-3-fluorophenyl)piperidin-4-yl)methyl)piperazin-1-yl)pyridin-2-yl)amino)pyrimidin-4-yl)-2-methylphenyl)ethyl)-1,2,4-oxadiazole-5-carboxamide] | 2.2 nM | > 10000 nM
CCc1nc(Nc2cc(-c3ccc([C@@H](C)NC(=O)c4nc(C(C)(C)C)no4)c(C)c3)ncn2)ccc1N1CCN(CC2CCN(c3ccc(N4CCC(=O)NC4=O)cc3)CC2)CC1 [Example 60, (R)-3-(tert-butyl)-N-(1-(4-(6-((5-(4-((1-(4-(2,4-dioxotetrahydropyrimidin-1(2H)-yl)phenyl)piperidin-4-yl)methyl)piperazin-1-yl)-6-ethylpyridin-2-yl)amino)pyrimidin-4-yl)-2-methylphenyl)ethyl)-1,2,4-oxadiazole-5-carboxamide] | 3.93 nM | > 10000 nM
Cc1cc(-c2cc(Nc3ccc(N4CCN(CC5CN(c6ccc(C7CCC(=O)NC7=O)cc6)C5)CC4)cn3)ncn2)ccc1[C@@H](C)NC(=O)c1nc(C(C)(C)C)no1 (stereo partly drawn) [Example 19, 3-(tert-butyl)-N-((1R)-1-(4-(6-((5-(4-((1-(4-(2,6-dioxopiperidin-3-yl)phenyl)azetidin-3-yl)methyl)piperazin-1-yl)pyridin-2-yl)amino)pyrimidin-4-yl)-2-methylphenyl)ethyl)-1,2,4-oxadiazole-5-carboxamide] | 2.51 nM | > 10000 nM
Cc1cc(-c2cc(Nc3ccc(N4CC5(CN(CC6CCN(c7ccc(N8CCC(=O)NC8=O)cc7)CC6)C5)C4)cn3)ncn2)ccc1[C@@H](C)NC(=O)c1nc(C(C)(C)C)no1 [Example 30, (R)-3-(tert-butyl)-N-(1-(4-(6-((5-(6-((1-(4-(2,4-dioxotetrahydropyrimidin-1(2H)-yl)phenyl)piperidin-4-yl)methyl)-2,6-diazaspiro [3.3]heptan-2-yl)pyridin-2-yl)amino)pyrimidin-4-yl)-2-methylphenyl)ethyl)-1,2,4-oxadiazole-5-carboxamide] | 0.539 nM | 1000 nM
